Reference: the NIST ThermoML archive (doi:10.1021/je1007907)
± gives the expanded uncertainty stated by the source.

Settings: Liquid

CCCCn1cc[n+](C)c1.F[B-](F)(F)F [1-butyl-3-methylimidazolium tetrafluoroborate]
Settings	mass density [kg/m3]
239.75 K, 1875.4 kPa	1243.62 ± 0.78
244.15 K, 9187.2 kPa	1243.32 ± 0.82
244.15 K, 30106 kPa	1251.69 ± 1
250.8 K, 41033 kPa	1251.23 ± 1.1
251.15 K, 20631 kPa	1242.83 ± 0.9
251.62 K, 1431.5 kPa	1234.33 ± 0.76
256.79 K, 51047 kPa	1250.8 ± 1.3
257.25 K, 10286 kPa	1233.95 ± 0.8
257.26 K, 30540 kPa	1242.41 ± 1
262.28 K, 59764 kPa	1250.41 ± 1.4
263.49 K, 40569 kPa	1241.97 ± 1.1
263.7 K, 20360 kPa	1233.5 ± 0.88
264.47 K, 1197.4 kPa	1225.08 ± 0.75
269.79 K, 50298 kPa	1241.52 ± 1.2
270.25 K, 9963.8 kPa	1224.68 ± 0.78
270.25 K, 30434 kPa	1233.04 ± 0.97
275.57 K, 59083 kPa	1241.11 ± 1.4
276.95 K, 19845 kPa	1224.21 ± 0.86
276.97 K, 40555 kPa	1232.57 ± 1.1
278.13 K, 1660 kPa	1215.35 ± 0.74
283.48 K, 50231 kPa	1232.1 ± 1.2
284.06 K, 30274 kPa	1223.71 ± 0.97
284.1 K, 10163 kPa	1214.93 ± 0.79
290.09 K, 59872 kPa	1231.63 ± 1.4
291.27 K, 40686 kPa	1223.19 ± 1.1
291.46 K, 20613 kPa	1214.42 ± 0.88
292.09 K, 1445.8 kPa	1204.99 ± 0.74
292.09 K, 1940.4 kPa	1204.98 ± 0.74
298.12 K, 105.9 kPa	1201.65 ± 0.74
298.12 K, 9550.8 kPa	1204.57 ± 0.79
298.13 K, 10109 kPa	1204.56 ± 0.79
298.14 K, 10428 kPa	1204.76 ± 0.79
298.14 K, 29887 kPa	1213.94 ± 0.99
298.58 K, 50942 kPa	1222.67 ± 1.3
305.03 K, 19306 kPa	1204.07 ± 0.88
305.53 K, 898.6 kPa	1194.9 ± 0.74
305.54 K, 60508 kPa	1222.17 ± 1.4
305.67 K, 40148 kPa	1213.41 ± 1.1
313.03 K, 9790.3 kPa	1194.22 ± 0.8
313.04 K, 29821 kPa	1203.5 ± 1
313.04 K, 30149 kPa	1203.7 ± 1
313.05 K, 10270 kPa	1194.38 ± 0.8
313.06 K, 29280 kPa	1203.51 ± 1
313.61 K, 50546 kPa	1212.83 ± 1.3
320.1 K, 328.6 kPa	1184.62 ± 0.74
320.51 K, 19693 kPa	1193.85 ± 0.9
321.4 K, 60815 kPa	1212.26 ± 1.4
321.61 K, 40890 kPa	1202.88 ± 1.2
327.98 K, 48935 kPa	1202.42 ± 1.3
328.18 K, 10050 kPa	1184.05 ± 0.81
328.18 K, 28863 kPa	1193.3 ± 1
328.18 K, 29052 kPa	1193.14 ± 1
328.18 K, 29263 kPa	1193.3 ± 1
328.22 K, 10050 kPa	1184.05 ± 0.81
336.35 K, 39210 kPa	1192.7 ± 1.2
336.68 K, 20276 kPa	1183.44 ± 0.92
337.09 K, 59633 kPa	1201.76 ± 1.5
344.2 K, 29113 kPa	1182.9 ± 1
344.31 K, 48811 kPa	1192.12 ± 1.3
353.68 K, 59697 kPa	1191.42 ± 1.5
354.16 K, 40617 kPa	1182.17 ± 1.2
